Reference: patent publication US9540330B2, “Oligomer-containing hydantoin compounds” (Nektar Therapeutics, priority 2010, dated 2017)

Columns and labels:
[1] = target: T1, cloned human hERG channel (Homo sapiens, UniProt Q12809); assay: hERG current block in HEK cells, whole-cell patch clamp; assay type: cell-based; conditions: HEK cells expressing cloned human hERG channel, 37±1° C., peak current at −40 mV; read-out: hERG (μM), IC50 for inhibition of hERG
T1 construct: expressed in transfected cells; host or cells: HEK cells
Protocol: Electrophysiological measurements of hERG current were made in vitro to assess the hERG block produced by the phenyloin conjugates. hERG currents were measured in HEK cells expressing the cloned human hERG channel using the whole-cell variant of the patch clamp method. Experiments were performed at 37±1° C. hERG current was elicited by a step pulse to +10 mV for 500 ms from a holding potential of −75 mV, followed by a pulse to −40 mV for 500 ms. Peak current was measured from the pulse to −40 mV. Six concentrations of each test compound were added to the cell in a cumulative manner starting with the lowest test concentration. Each cell served as its own control and data are presented as % reduction of current amplitude achieved in the presence of drug.

[2] = target: sodium channels in isolated cardiac cells (human atrial myocytes) (Homo sapiens, UniProt Q14524); assay: Sodium current (INa) block in isolated human atrial myocytes, whole-cell patch clamp; assay type: cell-based; conditions: pacing rates 0.1, 1 and 3 Hz, FIG. 2
Protocol: Phenyloin and compounds prepared in accordance with Example 1 were evaluated in vitro to determine their ability to block sodium channels in isolated cardiac cells (human atrial myocytes) using the whole-cell patch clamp method
Human myocytes were obtained from specimens of human right atrial appendages obtained during surgery from hearts of patients undergoing cardiopulmonary bypass surgery. The procedure produced rod-shaped, ion tolerant cells which were used within 24 hours after isolation. See Crumb et al. (1995) Am J Physiol 268:H1335-H1342. […]
After rupture of the cell membrane (entering whole-cell mode), current kinetics and amplitudes were allowed to stabilize as the cell was dialyzed with internal solution and paced at 3 Hz (3-5 minutes). Sodium current (INa) was measured using a voltage pulse to −20 mV (40 ms pulse duration) from a holding potential of −80 mV. Peak inward current was measured for INa. […]
Currents and voltages were recorded with patch-clamp amplifiers (Axopatch 1-B, Axon Instruments). […] Data was presented as % reduction of current amplitude, measured as current reduction after a steady-state effect had been reached in the presence of test article relative to current amplitude before introduction of test article (control). […]

T1 sequence (Q12809 whole entry): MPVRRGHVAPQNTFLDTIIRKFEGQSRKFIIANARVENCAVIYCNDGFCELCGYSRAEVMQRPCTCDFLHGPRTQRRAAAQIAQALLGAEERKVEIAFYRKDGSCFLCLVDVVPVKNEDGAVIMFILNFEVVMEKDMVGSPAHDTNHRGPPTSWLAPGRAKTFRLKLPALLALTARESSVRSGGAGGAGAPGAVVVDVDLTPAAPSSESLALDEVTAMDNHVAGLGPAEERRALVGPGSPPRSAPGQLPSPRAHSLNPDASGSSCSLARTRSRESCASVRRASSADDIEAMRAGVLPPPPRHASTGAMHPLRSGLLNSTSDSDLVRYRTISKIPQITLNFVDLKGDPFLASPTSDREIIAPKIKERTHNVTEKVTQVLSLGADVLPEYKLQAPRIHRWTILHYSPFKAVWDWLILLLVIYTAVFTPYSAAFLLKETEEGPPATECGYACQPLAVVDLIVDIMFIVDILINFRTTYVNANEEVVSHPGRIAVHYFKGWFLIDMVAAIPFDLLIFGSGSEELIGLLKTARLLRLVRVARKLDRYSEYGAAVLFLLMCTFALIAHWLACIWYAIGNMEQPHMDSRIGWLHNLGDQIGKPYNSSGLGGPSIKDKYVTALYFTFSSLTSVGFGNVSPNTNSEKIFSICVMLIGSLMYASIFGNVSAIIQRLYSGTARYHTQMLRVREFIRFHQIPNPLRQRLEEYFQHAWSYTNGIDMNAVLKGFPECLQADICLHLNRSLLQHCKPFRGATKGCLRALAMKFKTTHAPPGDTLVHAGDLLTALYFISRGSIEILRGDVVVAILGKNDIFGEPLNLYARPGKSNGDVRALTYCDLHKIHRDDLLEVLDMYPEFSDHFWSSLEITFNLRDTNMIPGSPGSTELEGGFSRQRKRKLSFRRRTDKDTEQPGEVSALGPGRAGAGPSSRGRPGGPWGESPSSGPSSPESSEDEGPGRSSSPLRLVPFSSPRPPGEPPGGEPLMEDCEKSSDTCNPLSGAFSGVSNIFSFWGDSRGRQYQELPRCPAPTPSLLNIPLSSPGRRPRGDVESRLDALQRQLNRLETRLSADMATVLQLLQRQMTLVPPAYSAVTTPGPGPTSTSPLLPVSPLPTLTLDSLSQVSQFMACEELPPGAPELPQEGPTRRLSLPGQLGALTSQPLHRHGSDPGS
Sequence of sodium channels in isolated cardiac cells (human atrial myocytes) (Q14524 whole entry): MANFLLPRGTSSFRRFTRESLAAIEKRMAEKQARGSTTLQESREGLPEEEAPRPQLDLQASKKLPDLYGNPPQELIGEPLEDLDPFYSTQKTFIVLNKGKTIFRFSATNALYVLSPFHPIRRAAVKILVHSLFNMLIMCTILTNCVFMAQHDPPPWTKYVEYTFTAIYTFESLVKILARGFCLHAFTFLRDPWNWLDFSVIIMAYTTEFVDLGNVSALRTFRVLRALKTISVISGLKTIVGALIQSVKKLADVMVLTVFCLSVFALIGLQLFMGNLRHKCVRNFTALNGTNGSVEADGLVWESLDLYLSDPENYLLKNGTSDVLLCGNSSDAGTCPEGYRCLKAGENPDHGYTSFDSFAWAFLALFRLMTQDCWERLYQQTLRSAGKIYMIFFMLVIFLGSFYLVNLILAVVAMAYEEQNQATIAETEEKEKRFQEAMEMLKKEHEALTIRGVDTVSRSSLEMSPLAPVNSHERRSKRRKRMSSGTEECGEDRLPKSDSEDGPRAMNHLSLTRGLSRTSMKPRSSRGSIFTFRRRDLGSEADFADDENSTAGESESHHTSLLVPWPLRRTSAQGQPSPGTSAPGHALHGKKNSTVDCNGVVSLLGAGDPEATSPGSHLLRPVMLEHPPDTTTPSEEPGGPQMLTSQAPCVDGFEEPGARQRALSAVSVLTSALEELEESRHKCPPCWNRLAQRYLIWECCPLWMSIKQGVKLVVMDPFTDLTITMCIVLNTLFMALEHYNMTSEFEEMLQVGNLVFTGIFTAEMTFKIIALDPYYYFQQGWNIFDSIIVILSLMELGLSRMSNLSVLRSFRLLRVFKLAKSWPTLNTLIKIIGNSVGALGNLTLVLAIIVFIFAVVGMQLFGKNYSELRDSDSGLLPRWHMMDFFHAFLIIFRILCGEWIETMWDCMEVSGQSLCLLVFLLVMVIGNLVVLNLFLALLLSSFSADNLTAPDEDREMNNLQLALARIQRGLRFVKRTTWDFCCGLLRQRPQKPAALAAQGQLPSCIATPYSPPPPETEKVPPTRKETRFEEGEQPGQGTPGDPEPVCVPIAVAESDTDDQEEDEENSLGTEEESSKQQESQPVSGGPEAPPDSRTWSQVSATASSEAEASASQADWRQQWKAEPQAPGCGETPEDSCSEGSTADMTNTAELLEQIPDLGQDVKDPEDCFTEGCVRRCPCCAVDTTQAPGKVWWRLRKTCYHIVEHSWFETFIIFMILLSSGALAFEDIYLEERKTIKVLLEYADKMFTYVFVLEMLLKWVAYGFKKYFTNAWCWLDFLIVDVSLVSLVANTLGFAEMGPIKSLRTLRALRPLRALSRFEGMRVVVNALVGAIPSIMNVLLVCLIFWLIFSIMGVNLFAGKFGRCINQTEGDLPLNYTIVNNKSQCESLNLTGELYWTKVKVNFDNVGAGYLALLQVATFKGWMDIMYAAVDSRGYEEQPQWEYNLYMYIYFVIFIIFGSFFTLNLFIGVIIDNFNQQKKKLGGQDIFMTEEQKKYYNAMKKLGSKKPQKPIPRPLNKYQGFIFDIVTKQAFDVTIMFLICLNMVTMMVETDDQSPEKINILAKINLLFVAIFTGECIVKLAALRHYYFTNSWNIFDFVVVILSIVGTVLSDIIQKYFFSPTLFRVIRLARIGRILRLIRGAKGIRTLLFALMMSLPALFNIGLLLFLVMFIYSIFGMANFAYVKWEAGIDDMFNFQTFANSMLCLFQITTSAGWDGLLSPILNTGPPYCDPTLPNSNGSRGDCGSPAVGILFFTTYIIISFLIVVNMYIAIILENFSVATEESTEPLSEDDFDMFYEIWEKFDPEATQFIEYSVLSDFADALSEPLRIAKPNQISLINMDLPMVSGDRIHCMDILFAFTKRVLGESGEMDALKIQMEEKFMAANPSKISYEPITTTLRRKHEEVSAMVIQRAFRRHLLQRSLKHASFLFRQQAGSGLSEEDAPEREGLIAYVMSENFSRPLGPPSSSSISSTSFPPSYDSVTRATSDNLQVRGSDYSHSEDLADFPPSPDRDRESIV

| SMILES | IC50 [1] [µM] | frequency-dependence of sodium channel block (in words) [2] |
| --- | --- | --- |
| COCCOCCOCCOCCOCCOCCOCCN1C(=O)NC(=O)C1(c1ccccc1)c1ccccc1 [mPEG7-N-Phenytoin] | > 100 | – |
| O=C1NC(=O)C(c2ccccc2)(c2ccccc2)N1 [Phenytoin, 5,5-diphenylhydantoin] | – | frequency-dependent block of sodium channels |
| COCCOCCOCCOCCOCCN1C(=O)NC(=O)C1(c1ccccc1)c1ccccc1 [mPEG5-N-Phenytoin] | > 100 | – |
| COCCOCCOCCOCCN1C(=O)NC(=O)C1(c1ccccc1)c1ccccc1 [mPEG4-N-Phenytoin] | 88.9 | – |
